{
  "source": "paper PMC10056986",
  "about": "(Pharmaceuticals, 2023)",
  "key": {"[1]": {"system": "Influenza virus A/California/07/2009 (H1N1)pdm09", "experiment": "microbe, parasite or virus in culture", "format": "cell-based", "details": "H1N1, MDCK, read-out: EC50 (mean ± SD)"}, "[2]": {"system": "Influenza virus A/California/2/2014 (H3N2)", "experiment": "microbe, parasite or virus in culture", "format": "cell-based", "details": "H3N2, MDCK, read-out: EC50 (mean ± SD)"}, "A/PR/8/34 (H1N1)": {"system": "A/PR/8/34 (H1N1)", "design": "species or system BALB/c mice", "details": "mouse, in vivo"}, "[3]": {"experiment": "Cytotoxicity in MDCK cells without viral infection", "details": "dog"}, "AD2 [4]": {"system": "AD2", "format": "cell-based, human", "details": "read-out: EC50"}, "Alpha1a": {"biological_target": "Alpha1a (Homo sapiens, UniProt P35348)", "sequence (P35348 whole entry)": "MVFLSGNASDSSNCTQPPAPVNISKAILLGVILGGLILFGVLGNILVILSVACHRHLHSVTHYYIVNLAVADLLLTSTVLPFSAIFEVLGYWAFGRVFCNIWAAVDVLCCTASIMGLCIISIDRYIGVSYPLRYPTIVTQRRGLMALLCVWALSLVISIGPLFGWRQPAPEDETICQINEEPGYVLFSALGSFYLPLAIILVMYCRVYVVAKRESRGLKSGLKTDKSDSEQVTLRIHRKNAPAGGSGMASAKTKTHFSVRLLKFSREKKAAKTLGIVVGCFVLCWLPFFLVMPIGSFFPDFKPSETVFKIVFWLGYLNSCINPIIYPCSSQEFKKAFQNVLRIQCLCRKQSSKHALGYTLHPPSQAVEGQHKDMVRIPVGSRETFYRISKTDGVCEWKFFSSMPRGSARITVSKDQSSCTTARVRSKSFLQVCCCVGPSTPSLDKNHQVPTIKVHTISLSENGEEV", "experiment": "cell-based", "details": "read-out: IC50"}, "[5]": {"system": "influenza A virus WSN/33 (H1N1)", "design": "species or system BALB/c mice", "details": "mouse, in vivo"}, "M1": {"biological_target": "M1 (Homo sapiens, UniProt P11229)", "sequence (P11229 whole entry)": "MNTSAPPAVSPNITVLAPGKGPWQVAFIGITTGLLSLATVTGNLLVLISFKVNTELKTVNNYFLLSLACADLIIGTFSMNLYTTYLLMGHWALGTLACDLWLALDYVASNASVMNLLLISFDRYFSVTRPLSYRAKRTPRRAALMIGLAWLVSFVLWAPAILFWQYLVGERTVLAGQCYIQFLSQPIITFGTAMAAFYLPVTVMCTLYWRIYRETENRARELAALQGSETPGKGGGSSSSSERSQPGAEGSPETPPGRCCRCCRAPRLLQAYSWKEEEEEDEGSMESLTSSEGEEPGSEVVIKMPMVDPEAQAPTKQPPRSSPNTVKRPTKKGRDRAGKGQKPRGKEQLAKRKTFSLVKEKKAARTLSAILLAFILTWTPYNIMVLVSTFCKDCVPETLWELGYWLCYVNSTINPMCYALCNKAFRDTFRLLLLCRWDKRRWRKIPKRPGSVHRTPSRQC", "experiment": "cell-based"}, "M2": {"biological_target": "M2 (Homo sapiens, UniProt P08172)", "sequence (P08172 whole entry)": "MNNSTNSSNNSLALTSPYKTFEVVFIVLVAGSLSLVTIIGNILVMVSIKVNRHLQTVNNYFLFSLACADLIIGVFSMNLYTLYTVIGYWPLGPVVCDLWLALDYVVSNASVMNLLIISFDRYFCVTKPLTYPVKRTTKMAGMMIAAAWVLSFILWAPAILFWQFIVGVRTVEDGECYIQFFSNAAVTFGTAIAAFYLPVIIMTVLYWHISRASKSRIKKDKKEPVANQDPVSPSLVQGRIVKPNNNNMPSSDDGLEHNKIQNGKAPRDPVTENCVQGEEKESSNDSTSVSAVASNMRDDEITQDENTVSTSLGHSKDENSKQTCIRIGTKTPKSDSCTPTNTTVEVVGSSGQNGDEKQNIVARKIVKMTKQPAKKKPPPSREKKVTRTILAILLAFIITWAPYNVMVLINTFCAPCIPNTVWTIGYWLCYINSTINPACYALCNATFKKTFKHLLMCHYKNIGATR", "experiment": "cell-based"}, "M3": {"biological_target": "M3 (Homo sapiens, UniProt P20309)", "sequence (P20309 whole entry)": "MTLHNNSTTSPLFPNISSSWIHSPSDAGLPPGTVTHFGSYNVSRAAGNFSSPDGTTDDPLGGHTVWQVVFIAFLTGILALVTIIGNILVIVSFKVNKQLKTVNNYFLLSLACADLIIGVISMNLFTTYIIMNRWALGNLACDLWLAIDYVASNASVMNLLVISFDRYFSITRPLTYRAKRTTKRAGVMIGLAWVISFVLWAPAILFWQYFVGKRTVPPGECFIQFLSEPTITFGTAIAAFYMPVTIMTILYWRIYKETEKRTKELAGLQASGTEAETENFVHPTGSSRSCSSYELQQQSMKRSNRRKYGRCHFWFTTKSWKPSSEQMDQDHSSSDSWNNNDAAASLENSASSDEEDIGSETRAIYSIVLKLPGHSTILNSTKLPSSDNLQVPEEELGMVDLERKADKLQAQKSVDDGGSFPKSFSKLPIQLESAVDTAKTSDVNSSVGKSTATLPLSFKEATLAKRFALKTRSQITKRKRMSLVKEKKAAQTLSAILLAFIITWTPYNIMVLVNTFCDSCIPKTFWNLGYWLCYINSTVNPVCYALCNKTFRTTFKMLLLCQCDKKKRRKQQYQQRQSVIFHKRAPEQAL", "experiment": "cell-based"}, "AD2 [6]": {"system": "AD2", "format": "cell-based, human"}, "RSV long": {"system": "RSV long", "experiment": "microbe, parasite or virus in culture", "format": "cell-based, respiratory syncytial virus", "details": "read-out: EC50 for Virus"}, "5HT2A": {"biological_target": "5HT2A (Homo sapiens, UniProt P28223)", "sequence (P28223 whole entry)": "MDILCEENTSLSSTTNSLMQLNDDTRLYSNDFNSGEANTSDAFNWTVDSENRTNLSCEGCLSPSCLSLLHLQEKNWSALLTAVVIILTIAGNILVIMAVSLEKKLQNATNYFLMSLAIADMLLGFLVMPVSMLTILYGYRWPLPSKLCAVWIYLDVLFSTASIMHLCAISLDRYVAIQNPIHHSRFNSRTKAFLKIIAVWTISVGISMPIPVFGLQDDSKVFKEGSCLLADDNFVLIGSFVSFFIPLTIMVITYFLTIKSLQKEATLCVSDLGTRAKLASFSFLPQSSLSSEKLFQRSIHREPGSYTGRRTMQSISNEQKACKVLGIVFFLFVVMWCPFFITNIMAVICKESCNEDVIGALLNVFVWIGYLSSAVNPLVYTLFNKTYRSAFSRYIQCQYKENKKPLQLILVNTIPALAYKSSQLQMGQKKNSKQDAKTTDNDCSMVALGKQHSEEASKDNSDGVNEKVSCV", "experiment": "cell-based", "details": "agonist mode; read-out: EC50"}, "HCV replicon 1b": {"system": "HCV replicon 1b", "experiment": "microbe, parasite or virus in culture", "format": "cell-based", "details": "Hepatitis C virus, read-out: EC50 for Virus"}, "in vitro [7]": {"experiment": "in vitro"}, "CB2": {"biological_target": "CB2 (Homo sapiens, UniProt P34972)", "sequence (P34972 whole entry)": "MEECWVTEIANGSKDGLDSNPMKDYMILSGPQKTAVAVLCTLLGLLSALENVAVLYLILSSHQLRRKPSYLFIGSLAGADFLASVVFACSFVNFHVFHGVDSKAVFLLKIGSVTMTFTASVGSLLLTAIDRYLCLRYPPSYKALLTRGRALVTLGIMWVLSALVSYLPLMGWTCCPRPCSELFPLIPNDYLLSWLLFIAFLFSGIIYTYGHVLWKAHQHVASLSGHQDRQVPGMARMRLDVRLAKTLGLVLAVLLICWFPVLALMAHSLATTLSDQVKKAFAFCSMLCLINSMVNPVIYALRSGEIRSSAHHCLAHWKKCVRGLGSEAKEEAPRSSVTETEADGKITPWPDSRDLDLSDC", "experiment": "cell-based", "details": "read-out: IC50"}, "H2": {"biological_target": "H2 (Homo sapiens, UniProt P25021)", "sequence (P25021 whole entry)": "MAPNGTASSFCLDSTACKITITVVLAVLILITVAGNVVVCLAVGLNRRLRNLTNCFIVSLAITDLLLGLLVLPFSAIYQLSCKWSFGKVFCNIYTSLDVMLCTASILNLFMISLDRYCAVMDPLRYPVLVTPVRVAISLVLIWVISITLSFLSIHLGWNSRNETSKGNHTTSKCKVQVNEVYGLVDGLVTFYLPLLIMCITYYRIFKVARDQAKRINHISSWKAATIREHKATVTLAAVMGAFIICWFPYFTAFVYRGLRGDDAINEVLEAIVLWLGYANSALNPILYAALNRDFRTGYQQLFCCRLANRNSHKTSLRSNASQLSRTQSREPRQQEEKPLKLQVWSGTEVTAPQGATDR", "experiment": "cell-based", "details": "read-out: EC50"}, "CCKa": {"biological_target": "T1, CCKa (Homo sapiens, UniProt P32238)", "T1 sequence (P32238 1-428)": "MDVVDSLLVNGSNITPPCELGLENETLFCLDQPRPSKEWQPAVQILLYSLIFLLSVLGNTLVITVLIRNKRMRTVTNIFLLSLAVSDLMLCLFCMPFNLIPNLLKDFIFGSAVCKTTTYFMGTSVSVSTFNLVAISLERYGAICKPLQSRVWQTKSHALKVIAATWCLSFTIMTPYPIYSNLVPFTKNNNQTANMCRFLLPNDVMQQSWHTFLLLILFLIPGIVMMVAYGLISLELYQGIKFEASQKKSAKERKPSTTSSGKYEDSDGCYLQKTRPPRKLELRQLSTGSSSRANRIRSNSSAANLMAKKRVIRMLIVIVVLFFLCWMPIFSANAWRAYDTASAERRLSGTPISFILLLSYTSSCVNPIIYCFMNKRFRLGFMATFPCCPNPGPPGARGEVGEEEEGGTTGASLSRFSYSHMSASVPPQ", "experiment": "cell-based", "details": "read-out: IC50"}, "HPIV-3 C243": {"system": "HPIV-3 C243", "experiment": "microbe, parasite or virus in culture", "format": "cell-based, human parainfluenza virus type 3", "details": "Human respirovirus 3, LLC-MK2, read-out: EC50 for Virus"}, "in vitro [8]": {"experiment": "in vitro", "details": "rhesus monkey"}},
  "note": "Structures can show the parent of a compound that is named as a salt.",
  "data": [
    {"compound": "O=C1c2c(O)c(=O)ccn2N([C@@H]2c3ccccc3SCc3c2ccc(F)c3F)[C@@H]2COCCN12", "note": "[Baloxavir]", "values": [
      {"measurement": "EC50", "setting": "[1]", "result": "1.06 ± 0.22", "unit": "nM"},
      {"measurement": "EC50", "setting": "[2]", "result": "0.61 ± 0.02", "unit": "nM"},
      {"measurement": "mortality rate", "setting": "A/PR/8/34 (H1N1)", "result": 40, "unit": "%"},
      {"measurement": "CC50", "setting": "[3]", "result": "14400 ± 1520", "unit": "nM"}
    ]},
    {"compound": "CCNC(=O)[C@H]1O[C@@H](n2cnc3c(N)ncnc32)[C@H](O)[C@@H]1O", "note": "[NECA, reference compound]", "values": [
      {"measurement": "EC50", "setting": "AD2 [4]", "result": 27.8, "unit": "nM"}
    ]},
    {"compound": "COc1ccccc1N1CCN(CCCNc2c(C)c(=O)n(C)c(=O)n2C)CC1", "note": "[5-Methylurapidil, reference compound]", "values": [
      {"measurement": "IC50", "setting": "Alpha1a", "result": 3.65, "unit": "nM"}
    ]},
    {"compound": "NC(=O)c1nc(F)c[nH]c1=O", "note": "[Favipiravir]", "values": [
      {"measurement": "animals died (of n = 8)", "setting": "[5]", "result": "six"},
      {"measurement": "day on which body weight of surviving mice began to recover", "setting": "[5]", "result": 9, "unit": "days"}
    ]},
    {"compound": "C#CCOC(=O)C1=CCCN(C)C1", "note": "[Arecaidine propargyl ester, reference compound]", "values": [
      {"measurement": "EC50", "setting": "M1", "result": 0.78, "unit": "nM"},
      {"measurement": "EC50", "setting": "M2", "result": 76.2, "unit": "nM"},
      {"measurement": "EC50", "setting": "M3", "result": 0.31, "unit": "nM"}
    ]},
    {"compound": "Nc1nc2ccc(Cl)cc2c2nc(-c3ccco3)nn12", "note": "[CGS-15943, reference compound]", "values": [
      {"measurement": "IC50", "setting": "AD2 [6]", "result": 0.11, "unit": "nM"}
    ]},
    {"compound": "O=c1n(Cc2nc3ccccc3n2CCCCO)c2cnccc2n1C1CC1", "note": "[BMS-433771, reference compound]", "values": [
      {"measurement": "EC50", "setting": "RSV long", "result": 14, "unit": "nM"}
    ]},
    {"compound": "NCCc1c[nH]c2ccc(C(N)=O)cc12", "note": "[5-CT, reference compound]", "values": [
      {"measurement": "EC50", "setting": "5HT2A", "result": 9.35, "unit": "nM"}
    ]},
    {"compound": "COC(=O)N[C@H](C(=O)N1CCC[C@H]1c1nc(-c2ccc(-c3ccc(-c4c[nH]c([C@@H]5CCCN5C(=O)[C@@H](NC(=O)OC)C(C)C)n4)cc3)cc2)c[nH]1)C(C)C", "note": "[BMS-790052, reference compound]", "values": [
      {"measurement": "EC50", "setting": "HCV replicon 1b", "result": 0.021, "unit": "nM"},
      {"measurement": "CC50", "setting": "in vitro [7]", "result": "> 3", "unit": "nM"}
    ]},
    {"compound": "COc1ccc(C(=O)c2c(C)n(CCN3CCOCC3)c3cc(I)ccc23)cc1", "note": "[AM630, reference compound]", "values": [
      {"measurement": "IC50", "setting": "CB2", "result": 234, "unit": "nM"}
    ]},
    {"compound": "Cc1nc(N)sc1CCN", "note": "[Amthamine dihydrobromide, reference compound]", "values": [
      {"measurement": "EC50", "setting": "H2", "result": 1340, "unit": "nM"}
    ]},
    {"compound": "CCCCCN(CCCCC)C(=O)C(CCC(=O)O)NC(=O)c1ccc(Cl)c(Cl)c1", "note": "(stereo not drawn) [Lorglumide, reference compound]", "values": [
      {"measurement": "IC50", "setting": "CCKa", "result": 256, "unit": "nM"}
    ]},
    {"compound": "NC(=O)c1ncn([C@@H]2O[C@H](CO)[C@@H](O)[C@H]2O)n1", "note": "[Ribavirin, reference compound]", "values": [
      {"measurement": "EC50", "setting": "HPIV-3 C243", "result": 20300, "unit": "nM"},
      {"measurement": "CC50", "setting": "in vitro [8]", "result": "> 100000", "unit": "nM"}
    ]}
  ]
}
